How the values were obtained:
[1] = Vasodilator activity in Sprague-Dawley rat mesentric artery assessed as reduction in of K+-induced contraction relative to control; assay type: functional; settings: Mesenteric artery
[2] = Vasodilator activity in Sprague-Dawley rat mesentric artery assessed as reduction in of K+-induced contraction; assay type: functional, Mesenteric artery

Row | SMILES | Emax [1] | pEC50 [2]
1 | COC(=O)c1ccccc1-c1c2ccoc2c(OCCN2CCCCC2)c2oc(=O)ccc12 | 116% | 5.35
2 | CC(C)=CCOc1c2occc2cc2ccc(=O)oc12 [PENTOSALEN] | 85.6% | 4.95
3 | COC(=O)c1ccccc1-c1c2ccoc2c(OCCN2CCCC2)c2oc(=O)ccc12 | 102% | 4.71
4 | COc1ccc(CCN(C)CCCC(C#N)(c2ccc(OC)c(OC)c2)C(C)C)cc1OC (stereo not drawn) [VERAPAMIL] | 95.8% | 7.51
5 | COC(=O)c1ccccc1-c1c2ccoc2c(OCCN(C)C)c2oc(=O)ccc12 | 102% | 5.27
6 | CCOC(=O)c1ccccc1-c1c2ccoc2c(OCCN2CCCCC2)c2oc(=O)ccc12 | 113% | 5.38
7 | CCOC(=O)c1ccccc1-c1c2ccoc2c(OCCN2CCOCC2)c2oc(=O)ccc12 | 113% | 5.81
8 | CCOC(=O)c1ccccc1-c1c2ccoc2c(OCCN2CCCC2)c2oc(=O)ccc12 | 100% | 5.15
9 | COC(=O)c1ccccc1-c1c2ccoc2c(OCCN2CCOCC2)c2oc(=O)ccc12 | 100% | 5.59

Source: ChEMBL document CHEMBL3751692, “Synthesis and fluorescent study of 5-phenyl furocoumarin derivatives as vasodilatory agents” (Bioorg Med Chem Lett, 2016)
